According to patent US8242081B2, “Cell penetrating peptides for intracellular delivery of molecules” (Centre National de la Recherche Scientifique, priority 2005, dated 2012):
Read-outs that look alike come from different tables or passages of the source. Peptide text beside a SMILES is read from it.

Columns and labels:
HS-68 and Hela cells = assay: Toxicity of CADY variants, MTT assay (Table 1); format: cell-based, human
Experimental: The toxicity of CADY peptides has been investigated on different cell lines. Cells were incubated in the presence of increasing concentrations of CADY (from 0.1 μM to 1 mM) for 12 hrs and cell viability was estimated using MTT assay.
The different CADY variants have been tested on HS-68 and Hela cells.
The lack of toxicity of CADY/cargo complexes can be directly associated to absence of free carrier peptide in the solution (FIG. 4B).

[1] = test system: 5PC3 or Human H1299 adenocarcinoma cells; assay: Intravenous injection of siRNA/CADY complexes, tumor mouse models; format: in vivo, NCR nude mice; conditions: only one injection, siRNA 10 μg
Experimental: Experiments were performed on two tumor mouse models.
(A) 1×10^6 5PC3 adenocarcinoma cells were injected subcutaneously into the flanks of NCR nude mice (day 1). siRNA/CADY-S complexes were obtained as described before at a ratio 1:20. CADY-S/siRNA complexes were injected intravenously at day 7. The size of the tumor was measured every day. Results correspond to the average of 5 different animals.
(B) 1×10^6 tumor cells expressing luciferase were injected intraperitoneally in the mice (4 to 8 week-old immune competent A/J female mices). Tumors were monitored using in vivo Imaging System (IVIS-Xenogen), which quantified total body bioluminescence after injection of D-luciferin. The tumor cells are visualized on three mice, each representative of one group (siRNA alone, CADY/siRNA complexes, and CADY-S/siRNA complexes).
The in vivo efficiency of CADY-S was then investigated, in order to determine if the cholesterol-modified form of CADY can improve siRNA delivery through intravenous injection and block tumor growth in vivo. Experiments were performed on two tumor mouse models, in which 5PC3 or Human H1299 adenocarcinoma cells were injected subcutaneously into the flanks of NCR nude mice.

[2] = test system: Jurkat, WI-38, HS-68 and HeLa cells; assay: CADY-2-mediated delivery of p27-derived peptides, cell arrest in G1 by FACS; format: cell-based
Experimental: FIG. 12: The different p27-derived peptides were associated with CADY-2 at a molar ratio of 1/20, since it was determined that at this ratio, the average size of the particle is of about 100-200 nm in diameter. The formulations were obtained in phosphate buffer, using a fixed concentration of peptide of 1 μM. Cell lines were cultured in Dulbecco's Modified Eagle's Medium supplemented with 2 mM glutamine, 1% antibiotics (streptomycin 10'000 μg/ml, penicillin, 10'000 IU/ml) and 10% (w/v) fetal calf serum (FCS), at 37° C. in a humidified atmosphere containing 5% CO2. Cells were synchronized by serum privation during 40 hrs, and cultured in Dulbecco's Modified Eagle's Medium supplemented with 2 mM glutamine, 1% antibiotics. G1 synchronized cells were released upon serum addition, then overlaid with preformed CADY-2/peptide complexes. After 30 min incubation at 37° C., 1 ml of fresh DMEM supplemented with 10% fetal calf serum was added directly to the cells, without removing the overlay of CADY/peptide complexes, and cells were returned to the incubator. The level of cell arrest in G1 was analyzed by FACS 24 hrs after release.

[3] = test system: Human H1299 adenocarcinoma cells; assay: Effect of p1p27/CADY complexes on tumor growth in vivo, intratumoral injection; set-up: species or system Swiss nude mice; conditions: 5 weeks after injection, control experiments
Experimental: The tumor animal model consists of Swiss nude mice, injected subcutaneously with 2×10^7 Human H1299 adenocarcinoma cells. CADY2/p1p27 complex and free CADY-2 and peptides were injected directly into the tumor (100-300 μg) after 1 and 4 weeks. p1p27/CADY complexes were obtained as described before at a ratio 1/20. Controls were performed by injecting PBS, CADY alone, or naked p1p27 instead of the p1p27/CADY-2 complex. The size of the tumor volume was measured with calipers once a week. Results correspond to the average of 5 different animals.

[4] = peptide delivered with CADY-2, ratio 1/20, 1 μM peptide, 24 hrs after release

## CC(=O)NCC(=O)N[C@@H](CC(C)C)C(=O)N[C@@H](Cc1c[nH]c2ccccc12)C(=O)N[C@@H](CCCNC(=N)N)C(=O)N[C@@H](C)C(=O)N[C@@H](CC(C)C)C(=O)N[C@@H](Cc1c[nH]c2ccccc12)C(=O)N[C@@H](CCCNC(=N)N)C(=O)N[C@@H](CC(C)C)C(=O)N[C@@H](CC(C)C)C(=O)N[C@@H](CCCNC(=N)N)C(=O)N[C@@H](CO)C(=O)N[C@@H](CC(C)C)C(=O)N[C@@H](Cc1c[nH]c2ccccc12)C(=O)N[C@@H](CCCNC(=N)N)C(=O)N[C@@H](CC(C)C)C(=O)N[C@@H](CC(C)C)C(=O)N[C@@H](Cc1c[nH]c2ccccc12)C(=O)N[C@@H](CCCCN)C(=O)N[C@@H](C)C(=O)NCCSS[C@H]1CC[C@@]2(C)C(=CC[C@H]3[C@@H]4CC[C@H]([C@H](C)CCCC(C)C)[C@@]4(C)CC[C@@H]32)C1 [CADY-S2] (HELM PEPTIDE1{[ac].G.L.W.R.A.L.W.R.L.L.R.S.L.W.R.L.L.W.K.A.[CC(C)CCC[C@@H](C)[C@H]1CC[C@H]2[C@@H]3CC=C4C[C@@H](SSCCN[*:1])CC[C@]4(C)[C@H]3CC[C@]12C]}$$$$V2.0)
HS-68 and Hela cells; 12 h
  EC50: 800 µM

## CC(C)CCC[C@@H](C)[C@H]1CC[C@H]2[C@@H]3CC=C4C[C@@H](OC(=O)NCC(=O)N[C@@H](CC(C)C)C(=O)N[C@@H](Cc5c[nH]c6ccccc56)C(=O)N[C@@H](CCCNC(=N)N)C(=O)N[C@@H](C)C(=O)N[C@@H](CC(C)C)C(=O)N[C@@H](Cc5c[nH]c6ccccc56)C(=O)N[C@@H](CCCNC(=N)N)C(=O)N[C@@H](CC(C)C)C(=O)N[C@@H](CC(C)C)C(=O)N[C@@H](CCCNC(=N)N)C(=O)N[C@@H](CO)C(=O)N[C@@H](CC(C)C)C(=O)N[C@@H](Cc5c[nH]c6ccccc56)C(=O)N[C@@H](CCCNC(=N)N)C(=O)N[C@@H](CC(C)C)C(=O)N[C@@H](CC(C)C)C(=O)N[C@@H](Cc5c[nH]c6ccccc56)C(=O)N[C@@H](CCCCN)C(=O)N[C@@H](C)C(=O)NCCS)CC[C@]4(C)[C@H]3CC[C@]12C [CADY-S] (HELM PEPTIDE1{[CC(C)CCC[C@@H](C)[C@H]1CC[C@H]2[C@@H]3CC=C4C[C@@H](OC(=O)[*:2])CC[C@]4(C)[C@H]3CC[C@]12C].G.L.W.R.A.L.W.R.L.L.R.S.L.W.R.L.L.W.K.A.[SCCN[*:1]]}$$$$V2.0)
[1]
  tumor growth: fully abolish the tumor growth
HS-68 and Hela cells; complexed with cargo (ratio 1/20), MTT, read-out: complexed EC50
  EC50: 1000 µM

## NRTEENVSDGSPNAGSVEQTPKKPGLR [p2p27, p27-derived peptide used as a negative control, reference compound]
[2]; [4]
  cell cycle arrest in G1: no effect

## PSLERMDAR [pRXL]
[2]; pRXL with CADY strategy
  efficiency compared with published TAT or Pen covalent based strategy: at least 2 fold
[2]; [4]
  cell cycle arrest in G1: induced a cell cycle arrest in G1

## RVSNGSPSLERMDARQAEHPKPSACRNL [p1p27]
[3]
  increase of tumor size: 5 fold
[2]; carrier alone or free peptide
  cell cycle arrest in G1: no effect
[2]; [4]
  cell cycle arrest in G1: induced a cell cycle arrest in G1
